Data from publication PMC8840081, “Phenylalanine-Based AMPA Receptor Antagonist as the Anticonvulsant Agent with Neuroprotective Activity—In Vitro and In Vivo Studies” (Molecules, 2022).
pIC50, pKi: −log10 of the molar value.

What was measured:
[1] = oxygen radical absorbance capacity fluorescent (ORAC-FL) assay; conditions: Trolox equivalent, calculated at 5 µM of compounds and Trolox
Experimental: The ORAC-FL was performed according to procedure described in the literature. The reagents used in this assay, TX, fluorescein and 2,2′-azobis(2-amidinopropane) dihydrochloride (AAPH), were purchased from Sigma-Aldrich, Inc., St. Louis, MO, USA. The prepared ORAC-FL reagent consisted of 0.3 μM of fluorescein and 100 µM of AAPH dissolved in PBS buffer. The compounds and the reference antioxidant TX were tested at the concentration 2.5 µM and the results were compared to the blank in which no antioxidant was present. The assays were performed in black 96-well plates. The fluorescence readings were taken by a microplate reader EnSpire (PerkinElmer, Waltham, MA, USA) every minute for a duration of 240 min. The excitation wavelength was 485 nm and the emission wavelength was 520 nm. The area under the fluorescence decay curve (AUC) was calculated next by GraphPad Prism™ software (version 5.01, San Diego, CA, USA). All measurements were performed in triplicate. The TX equivalent (TE) was calculated next using the following Equation (1):TE = [(AUCsample − AUCblank)/(AUCTX − AUCblank)] × [CTX/Csample](1)

native AMPA receptors = conditions: cited from earlier work; for pKi / pIC50: native AMPA receptors, rat brain membranes, mean of three experiments; for pKi: read-out: [3H]AMPA Ki; for pIC50: read-out: [3H]AMPA IC50 (footnote 4: IC50 values)
[2] = ferric reducing antioxidant power (FRAP) assay; conditions: % of ascorbic acid activity; compounds and AA at 1 mM
Experimental: The total antioxidant potential of aryl-substituted phenylalanine derivatives was determined using FRAP assay. The FRAP reagent was prepared first by mixing acetate buffer (300 mM, pH 3.6), a solution of 10 mM TPTZ (2,4,6-tripyridyl-s-triazine, Sigma-Aldrich, Inc., St. Louis, MO, USA) in 40 mM HCl and 20 mM of iron (III) chloride hexahydrate (FeCl3 × 6H2O, Chempur, Piekary Śląskie, Poland) at 10:1:1 (v/v/v). The FRAP reagent (190 μL) and 1 mM of tested compound (10 μL) was added next to each well, mixed and incubated for 30 min. The absorbance was measured using a microplate reader EnSpire (PerkinElmer, Waltham, MA USA) at 593 nm. AA (1 mM, AMARA, Kraków, Poland) was used as the reference antioxidant. The results were expressed as % of ascorbic acid activity (%AAA). Analyses were performed in triplicate. • ORAC-FL

[3] = tested on: IMR-32 neuroblastoma cells; experiment: neuroprotection against 6-OHDA-induced LDH release; assay type: cell-based, human; conditions: IMR-32, compound 50 µM, 1 h pretreatment, 200 µM 6-OHDA, 24 h
Experimental: (§1) All cell culture protocols and assay conditions were applied as we reported previously. SH-SY5Y (ATCC® CRL-2266™) cell line was purchased from ATCC (Manassas, VA, USA). IMR-32 (ATCC® CCL-127™) cell line was kindly provided by the Department of Oncogenomics, Academisch Medisch Centrum, Amsterdam, Holland. Before each test SH-SY5Y or IMR-32 cells were seeded in 96-well plates with transparent bottom at a concentration of 2.5 × 10^4 cells/well in 100 μL of respective cell culture medium and cultured for 24 h to reach 70% confluence. • Cell Viability
(§2) CytoTox-ONE™ Homogeneous Membrane Integrity Assay, which based on the LDH release, was purchased from Promega (Madison, WI, USA). SH-SY5Y or IMR-32 cells were seeded in 96-well white plates with transparent bottom. For neuroprotective studies, the cells were preincubated first for 1 h with compound 1, 8 or reference antioxidants AA, TX (all at the concentration of 50 μM) and next the neurotoxin 6-OHDA (Sigma-Aldrich, Inc., St. Louis, MO, USA) was added at final concentration of 50 μM (SH-SY5Y assay) or 200 µM (IMR-32 assay). After 24 h of incubation, the CytoTox-ONE™ was added to each well and the cells were incubated next for 10 min at room temperature. The fluorescence was measured using a microplate reader EnSpire (PerkinElmer, Waltham, MA, USA) with an excitation wavelength of 560 nm and an emission wavelength of 590 nm. All measurements were performed in triplicate and results are shown as mean ± SD. The similar studies were also performed with SH-SY5Y cells injured by 100 μM of 6-OHDA (Figure S1, Supporting Materials). • ROS Assay

[4] = tested on: SH-SY5Y neuroblastoma cells; experiment: neuroprotection against 6-OHDA-induced LDH release; assay type: cell-based, human; conditions: compound 50 µM
Experimental: as §1, §2

[5] = 1 h pretreatment, 50 µM 6-OHDA, 24 h

Row | Structure (SMILES) | ORAC (TE) [1] | pKi (native AMPA receptors) | FRAP (%AAA) [2] | 6-OHDA-induced release of LDH (neuroprotection) [3] | 6-OHDA-induced release of LDH (neuroprotection) ([4]; 100 µM 6-OHDA) | 6-OHDA-induced release of LDH (neuroprotection) [4, 5] | selectivity over NMDA and KA receptors (native AMPA receptors) | pIC50 (native AMPA receptors)
1 | NC(Cc1ccc([N+](=O)[O-])c(-c2cccc(O)c2)c1)C(=O)O (centres unmarked) [Compound 10] | 1.43 TE | 4.68 | 32.04 %AAA | – | – | – | – | –
2 | NC(Cc1cc(Cl)c(O)c(-c2cccc(O)c2)c1)C(=O)O (centres unmarked) [Compound 3] | 4.61 TE | 5.10 | 311.56 %AAA | – | – | – | – | –
3 | Cc1c(C)c2c(c(C)c1O)CCC(C)(C(=O)O)O2 (centres unmarked) [TX, Trolox, reference compound] | – | – | – | no statistically significant neuroprotective effect | neuroprotective effect was not observed | no statistically significant neuroprotective effect | – | –
4 | NC(Cc1ccc(Cl)c(-c2cccc(O)c2)c1)C(=O)O (centres unmarked) [Compound 13] | 2.86 TE | 5.04 | 24.08 %AAA | – | – | – | – | –
5 | NC(Cc1ccc([N+](=O)[O-])c(-c2ccc(O)cc2)c1)C(=O)O (centres unmarked) [Compound 20] | 1.62 TE | 4.19 | 4.41 %AAA | – | – | – | – | –
6 | NC(Cc1cc(-c2cccc(O)c2)c(Cl)c([N+](=O)[O-])c1)C(=O)O (centres unmarked) [Compound 18] | 1.34 TE | 5.51 | 6.29 %AAA | – | – | – | high selectivity | –
7 | O=C1O[C@H]([C@@H](O)CO)C(O)=C1O [AA, ascorbic acid, reference compound] | – | – | – | no statistically significant neuroprotective effect | neuroprotective effect was not observed | no statistically significant neuroprotective effect | – | –
8 | NC(Cc1cc(Cl)c(Cl)c(-c2ccccc2O)c1)C(=O)O (centres unmarked) [Compound 16] | 1.54 TE | – | 10.32 %AAA | – | – | – | – | 4.07
9 | Nc1c(Cl)cc(CC(N)C(=O)O)cc1-c1cccc(O)c1 (centres unmarked) [Compound 14] | 4.75 TE | 5.00 | 23.80 %AAA | – | – | – | – | –
10 | NC(Cc1cc(-c2cncc(O)c2)c(Cl)c([N+](=O)[O-])c1)C(=O)O (centres unmarked) [Compound 2] | 3.15 TE | 5.70 | 691.21 %AAA | – | – | – | high selectivity | –
11 | COc1c(Cl)cc(CC(N)C(=O)O)cc1-c1cccc(O)c1 (centres unmarked) [Compound 22] | 1.38 TE | < 4.00 | 2.76 %AAA | – | – | – | – | –
12 | NC(Cc1ccc(Cl)c(-c2ccc(O)cc2)c1)C(=O)O (centres unmarked) [Compound 17] | 1.96 TE | 4.19 | 9.13 %AAA | – | – | – | – | –
13 | NC(Cc1cc(-c2ccc(O)cc2)cc([N+](=O)[O-])c1)C(=O)O (centres unmarked) [Compound 5] | 4.32 TE | 4.68 | 96.32 %AAA | – | – | – | – | –
14 | NC(Cc1cc(Cl)c(Cl)c(-c2ccc(O)c(O)c2)c1)C(=O)O (centres unmarked) [Compound 4] | 4.02 TE | – | 177.23 %AAA | – | – | – | – | 4.92
15 | Nc1ccc(CC(N)C(=O)O)cc1-c1cccc(O)c1 (centres unmarked) [Compound 6] | 6.09 TE | 5.04 | 67.35 %AAA | – | – | – | – | –
16 | NC(Cc1cc(Cl)c(Cl)c(-c2cc(O)cc(O)c2)c1)C(=O)O (centres unmarked) [Compound 11] | 4.18 TE | – | 28.90 %AAA | – | – | – | – | 4.80
17 | NC(Cc1cc(Cl)cc(-c2ccc(O)cc2)c1)C(=O)O (centres unmarked) [Compound 7] | 3.29 TE | 4.34 | 49.39 %AAA | – | – | – | – | –
18 | NC(Cc1cccc(-c2cccc(O)c2)c1)C(=O)O (centres unmarked) [Compound 19] | 1.96 TE | – | 4.94 %AAA | – | – | – | – | 5.00
19 | NC(Cc1cc(-c2ccc(O)cc2)c(Cl)c([N+](=O)[O-])c1)C(=O)O (centres unmarked) [Compound 21] | 2.56 TE | 4.64 | 2.76 %AAA | – | – | – | – | –
20 | NC(Cc1cc(Cl)c(Cl)c(-c2ccc(O)cc2)c1)C(=O)O (centres unmarked) [Compound 15] | 1.45 TE | – | 13.70 %AAA | – | – | – | – | 4.48
21 | NC(Cc1cc(-c2cccc(O)c2)cc([N+](=O)[O-])c1)C(=O)O (centres unmarked) [Compound 9] | 4.67 TE | 5.09 | 43.43 %AAA | – | – | – | – | –
22 | Nc1c(-c2cccc(O)c2)cc(CC(N)C(=O)O)cc1[N+](=O)[O-] (centres unmarked) [Compound 12] | 4.27 TE | 4.85 | 24.93 %AAA | – | – | – | – | –
